Tested on: amnesia in mice, as caused by scopolamine
Assay: CPAR, model of amnesia caused by scopolamine
Format: in vivo
Conditions: scopolamine 1 mg/kg i.p.
Protocol: For this, the active substances Melatonin 3 mg/Memantin 10 mg, Melatonin 5 mg/Memantin 20 mg, Melatonin 10 mg/Memantin 20 mg were taken, and doses recommended for human beings were converted into doses adapted for mice according to the formula “(active substance/70(average weight of a human being))×7”. Then the compositions were dissolved in 5 mL of the solution and, according to the given formula, introduced to animals intraperitoneally once a day for 5 days.
The CPAR test is the main model for evaluating substance influences on formation and replication of short-time memory in a normal condition and in an abnormal condition, i.e., induced amnesia. The CPAR is the most informative method among the methods that are used today for evaluating efficiency of substances with influence on the CNS of mammals (see, “Manual for Experimental (Pre-Clinical) Studies of New Pharmacological Substances”, 2000). The CPAR (conditioned passive avoidance reflex in a dark, light chamber) was taught to the mice on the basis of electrodermal response according to the method proposed by Cumin et al. (1982) with due regard to the recommendations given by Mondadori et al. (1990). The installation for mice, as produced by Lafayette Instrument Co., USA, was a black chamber with the electrode floor and a white plastic platform that was arranged on the floor in the center of the chamber. The mice, one by one, were put onto the plastic platform. The animals went/jumped down onto the electrode floor where they received an electric current shock, i.e., punishment. Electric current was supplied after the time when an animal stood on the floor with all its four legs. The natural response of the animals is to go back to the current-free or safe platform. […] Tests for memorizing CPAR were conducted in successive time intervals after amnesic action. In a case where an animal went/jumped down onto the platform within 1 minute, it was recorded as having retrograde amnesia of the passive avoidance skill. The compositions were studied in comparison with Melatonin 5 mg (mono-use) and Memantin 10 mg (mono-use), according to the above formula for adapting to animal models.
The compositions under study were dissolved in 5 mL of the solution and, according to the above formula, introduced to the animals intraperitoneally, once a day for 5 days.

[1] = 1 day after teaching, Melatonin 5 mg, Memantin 10 mg mono-use

CN1[C@@H]2C[C@@H](OC(=O)[C@H](CO)c3ccccc3)C[C@H]1[C@@H]1O[C@@H]12 [Scopolamine]
Latent time of entering into the dark chamber [1]: 72.3 ± 25.6 s | Number of mice not entered into the dark chamber, % [1]: 25% | Number of mice not entered into the dark chamber, % (3 days after teaching, Melatonin 5 mg, Memantin 10 mg mono-use): 33.3% | Number of mice not entered into the dark chamber, % (7 days after teaching, Melatonin 5 mg, Memantin 10 mg mono-use): 41.6% | Number of mice not entered into the dark chamber, % (10 days after teaching, Melatonin 5 mg, Memantin 10 mg mono-use): 50% | CPAR amnesia observed, % of the animals (in 24 hours, p<0.001): 90% | Number of mice taught to CPAR (%) (agents i.p. once a day for 5 days, Melatonin 5 mg, Memantin 10 mg mono-use): 58.3%
